Structures can show the parent of a compound that is named as a salt.

For data set [1], the system named is female human subjects with IBS (non-constipated). Briefly: Double-blind, placebo controlled clinical trials of alosetron for the treatment of IBS, response stratified by 5HTT genotype. It is filed as in vivo. The note with it: for proportion of patients achieving response (relief of IBS symptoms): relief during six weeks of twelve week treatment. An excerpt:
FIG. 1 is a graph based on data collected from female patients enrolled in clinical trials of alosetron for the treatment of IBS. The study population was comprised of non-constipated individuals with IBS. The subjects were divided into 5HTT genotypes. Of the 219 subjects, 71 (32.4%) were del/del 5HTT, 75 (34.2%) were del/ins 5HTT and 73 (33.3%) were ins/ins 5HTT. […] “Response” was defined as relief of IBS symptoms (abdominal pain and discomfort) during six weeks of a twelve week treatment study. Two hundred and nineteen subjects, received either alosetron (102 subjects) or matched placebo (117 subjects). The proportion of patients achieving response following treatment with alosetron was 68% (21/31) for del/del 5HTT, 64% (21/33) for del/ins 5HTT and 58% (22/38) for ins/ins 5HTT. The proportion of patients achieving response following treatment with placebo was 58% (23/40) for del/del 5HTT, 38% (16/42) for del/ins 5HTT and 34% (12/35) for ins/ins 5HTT.
FIG. 2 compares, among 5HTT genotypes, the percentage of alosetron-treated subjects who reported constipation. Of the 102 alosetron treated subjects, the proportion of subjects reporting constipation was 13% (4/31) for del/del 5HTT, 30% (10/33) for del/ins 5HTT and 21% (8/38) for ins/ins 5HTT.
Genetic samples were obtained from 219 female human subjects enrolled in clinical trials of alosetron for the treatment of IBS. Using PCR technology as is known in the art, an insertion/deletion genetic marker was assayed in the 5-hydroxytryptamine transporter gene (5HTT gene). The alleles were labeled as “del” (deletion) or “ins” (insertion) resulting in three possible genotypes (del/del; del/ins or ins/ins).
The subjects' response to alosetron in the clinical trial setting was reviewed and correlated with genotype. In the double-blind, placebo controlled clinical trials, subjects received 12 weeks of treatment with either alosetron or a placebo. A favorable response to alosetron was when a subject reported relief of IBS symptoms during six weeks of the twelve week trial. The incidence of various other effects, including constipation, was also recorded.
The response of subjects to treatment with alosetron in the clinical trial was stratified according to genotype.
The occurrence of constipation during alosetron treatment in the clinical trial was stratified according to genotype. […] In del/del subjects (n=31), 4 (13%) reported constipation; in del/ins subjects (n=33), 10 (30%) reported constipation; and in ins/ins subjects (n=38), 8 (21)% reported constipation (FIG. 2).

The test system of data set [2] is patients with Irritable Bowel Syndrome (IBS). The note with it: double-blind, placebo controlled studies (literature); cited from earlier work.

Turning to `Cc1[nH]cnc1CN1CCc2c(c3ccccc3n2C)C1=O` [alosetron, Alosetron hydrochloride], the “proportion of subjects reporting constipation” value in data set [1] (del/del 5HTT genotype, alosetron-treated, 4/31 subjects) was determined as 13%; in data set [1] (del/ins 5HTT genotype, alosetron-treated, 10/33 subjects) it was 30%; in data set [1] (ins/ins 5HTT genotype, alosetron-treated, 8/38 subjects) it was 21%; in data set [1] (total group of subjects receiving alosetron (n=102)), 21%. For the same compound, the “proportion of patients achieving response (relief of IBS symptoms)” value in data set [1] (del/del 5HTT genotype, 21/31 subjects) was 68%; in data set [1] (del/ins 5HTT genotype, 21/33 subjects), 64%; in data set [1] (ins/ins 5HTT genotype, 22/38 subjects) it was 58%. Besides, the “relief of IBS symptoms compared with placebo” value in data set [1] (in each of the three 5HTT genotypes) is “more effective than placebo”. The “effect on pain and bowel function in IBS patients” value in data set [2] is “reduce pain and improve bowel function”.

Values taken from US20030124566A1, “5-Hydroxytryptamine transporter gene polymorphisms” (priority 2000, published 2003).
